Literature values, collected in patent US20080057125A1, “STABLE TABLET DOSAGE FORMS OF PROTON PUMP INHIBITORS” (priority 2005, published 2008).
Like-named read-outs stand apart in the source and are kept apart here.

Assays:
[1] = from commercially marketed dosage forms
[2] = 25° C.

| percent bioavailability [1] | degradation half-life in aqueous solution ([2]; pH 5.0) | degradation half-life in aqueous solution ([2]; pH 7.0) | Structure (SMILES) |
| --- | --- | --- | --- |
| 30-40% | – | – | COc1ccc2[nH]c([S+]([O-])Cc3ncc(C)c(OC)c3C)nc2c1 (stereo not shown) [omeprazole, 2-[2-(3,5-dimethyl-4-methoxy)-pyridylmethylsulfinyl]-(5-methoxy)-benzimidazole] |
| 80-85% | approximately 0.5 hour | approximately 18 hours | Cc1c(OCC(F)(F)F)ccnc1C[S+]([O-])c1nc2ccccc2[nH]1 (stereo not shown) [Lansoprazole, 2-[[[3-methyl-4-(2,2,2-trifluoroethoxy)-2-pyridyl]methyl]sulfinyl]benzimidazole] |
